{"source": "a melting point compilation (Tetko et al.; mined from patent text by program, amines drawn as free bases though some values may be those of a salt)", "data": [{"units": {"melting point": "°C"}, "values": [{"smiles": "COC(=O)c1ccc(Cl)c(C2(O)C(=O)N(Cc3ccc(OC)cc3OC)c3ccccc32)c1", "note": "(centres undefined)", "melting point": 172}, {"smiles": "Cc1nn(-c2ccccn2)cc1COc1ccc(COc2ncccc2CC#N)cc1", "melting point": "138 to 139"}, {"smiles": "C[C@@H]1OC(=O)N[C@H]1Cc1ccccc1", "melting point": 116}, {"smiles": "O=C(Nc1ccc(N2CCNCC2)c(C(F)(F)F)c1)c1ccc(F)c(OCc2cncc3ccccc23)c1", "melting point": "103 to 107"}, {"smiles": "Oc1ccc2c(c1)CCN(Cc1ccc(-c3ccccc3)cc1)C2", "melting point": "235 to 237"}, {"smiles": "COCc1cccc(C=CC(O)c2ccccc2)c1NC(=O)CC1c2ccccc2Oc2ccccc21", "note": "(centres undefined)", "melting point": "204 to 206"}, {"smiles": "C=CCOc1ccccc1-c1ncc(C#N)c(=O)[nH]1", "melting point": "162 to 164"}, {"smiles": "CCOC(=O)C(=O)c1cc(Cl)c(C)cc1F", "melting point": "84 to 85"}, {"smiles": "COC(=O)[C@@H](CC(C)C)NC(=O)C[C@H]1O[C@H](c2cccc(OC)c2OC)c2cc(Cl)ccc2N(CC(CO)(OC)OC)C1=O", "melting point": "110 to 111"}, {"smiles": "C/C(=C\\c1ccc(CO)cc1)c1ccc2c(c1)C(C)(C)C(O)CC2(C)C", "note": "(centres undefined)", "melting point": "182 to 183"}, {"smiles": "O=C(O)Cc1c(C(=O)c2ccc(Cl)cc2)[nH]c2ccc(F)cc12", "melting point": "233 to 238"}, {"smiles": "O=C1CCC(N2Cc3cc(CNC(=O)c4ccc(Cl)c(Cl)c4)ccc3C2=O)C(=O)N1", "note": "(centres undefined)", "melting point": "260 to 262"}, {"smiles": "Cc1cccc(C2=CCN(c3ccc(O)nn3)CC2)c1", "melting point": 179}, {"smiles": "COc1cc2c(cc1OC)CN(CCCOc1ccc(NC(=O)c3cccc4c(=O)c5cccc(OC)c5[nH]c34)c(C)c1)CC2", "melting point": 160}, {"smiles": "CSc1nc(N)nc(-c2ccccc2)c1-c1ccc(=O)n(C(C)C)n1", "melting point": "221 to 222"}, {"smiles": "COC(=O)NC(=O)Nc1ccc(OC)c(OC)c1", "melting point": "168 to 170"}, {"smiles": "c1cc2c3c(c1)nc(N1CCC(c4c[nH]cn4)CC1)n3CCC2", "melting point": "250 to 255"}, {"smiles": "COc1ccc2c(c1)CC(C)C1C2CCC2(C)C(=O)CCC12", "note": "(centres undefined)", "melting point": "167 to 170"}, {"smiles": "O=c1nc(-c2cccc(-c3ccccc3)n2)sc2ccccc12", "melting point": "195 to 197"}, {"smiles": "CCCCc1ccc(-c2ccc(OCC(C)CC)nn2)cc1", "note": "(centres undefined)", "melting point": 94}, {"smiles": "CN(CCOc1ccc2ccc(N)nc2n1)C(=O)OC(C)(C)C", "melting point": 170}, {"smiles": "CC(C)COc1ccc(C(=O)N/C(=C\\c2ccc(OC(F)F)cc2)C(=O)NCCO)cc1", "melting point": "75 to 78"}, {"smiles": "OC(CNCCNc1ncnc2nc[nH]c12)COc1ccccc1", "note": "(centres undefined)", "melting point": "169 to 170"}, {"smiles": "O=C1c2c(OCc3ccccc3)c(OCc3ccccc3)cc(OCc3ccccc3)c2-c2nn(CCNCCO)c3ccc(Cl)c1c23", "melting point": "164 to 167"}, {"smiles": "CC=CC(=O)N1CCN(NC(=O)c2ccc(F)cc2)CC1", "melting point": "191 to 193"}, {"smiles": "N#Cc1ccc(-c2csc(N3C(=O)OCC34CC4)n2)cc1", "melting point": "219 to 221"}, {"smiles": "COC(=O)[C@@H](NC(=O)Nc1n[nH]c(=S)s1)[C@@H](C)OCc1ccccc1", "melting point": "88 to 90"}, {"smiles": "COC(=O)COc1cccc2c(CCO)c(CCOC(C)=O)oc12", "melting point": "80 to 81"}, {"smiles": "Cc1cccc(-c2[nH]c(C(C)(C)C)nc2-c2cccc(-c3ccc(C(=O)NC4CCOCC4)cc3)c2)n1", "melting point": "146 to 149"}, {"smiles": "CCNC(CO)Cc1cc(OC)cc(OC)c1", "note": "(centres undefined)", "melting point": "82 to 83"}, {"smiles": "Nc1ccc(C(=O)OC2CCN(Cc3ccccc3)CC2)cc1", "melting point": "119 to 120"}, {"smiles": "Nc1ccc(S(=O)(=O)c2cccc3cnccc23)cc1", "melting point": "207 to 209"}, {"smiles": "O=C1NC(=O)C(C2CC=CCC2)O1", "note": "(centres undefined)", "melting point": "83 to 86"}, {"smiles": "COc1cc(N2C(=O)c3ccccc3C2=O)c(F)cc1C#N", "melting point": 245}, {"smiles": "CCCCCCCc1ccc(-c2ncc(C#N)c(Cl)n2)cc1", "melting point": "76.3 to 76.8"}, {"smiles": "NC(N)=Nc1nc(-c2cccc(CNC=O)n2)cs1", "melting point": "192 to 193"}, {"smiles": "NC(=O)c1sc2nc(N3CCC(NCC(O)c4cccc(F)c4)CC3)cc(C(F)(F)F)c2c1N", "note": "(centres undefined)", "melting point": 215}, {"smiles": "Cc1nc(N2C[C@@H](C)N(Cc3ccc(F)cc3)C2=O)sc1C(=O)NCc1cncs1", "melting point": "66 to 69"}, {"smiles": "CSC(=NC(=O)OCc1ccccc1)NNC(=O)NC(=O)OCc1ccccc1", "melting point": "165 to 166"}, {"smiles": "N#Cc1ccc(N2CC(C(=O)O)OC2=O)cc1", "note": "(centres undefined)", "melting point": 204}, {"smiles": "Nc1cc(Br)c(Br)cc1[N+](=O)[O-]", "melting point": "198 to 199"}, {"smiles": "NC(=O)CCCSc1cccc(NC(N)=NCC(F)(F)F)n1", "melting point": "138 to 141"}, {"smiles": "CCOC(=O)C(C)(C)C(=O)C(Oc1ccc(Cl)cc1)n1ccnc1", "note": "(centres undefined)", "melting point": 88}, {"smiles": "CN(C)C(=O)NCc1cccc(-c2nc(=O)c3ccccc3s2)n1", "melting point": "175 to 176"}, {"smiles": "CC(=O)OC1CCC2(C)C(CCC3C2CCC2(C)C(C(C)CCCI)CCC32)C1", "note": "(centres undefined)", "melting point": "140 to 146"}, {"smiles": "CC(C)[C@]1(CCc2ccsc2)CC(O)=CC(=O)O1", "melting point": "117 to 123"}, {"smiles": "COc1cccc(N2CCN(S(=O)(=O)c3cccc(/C=C/C(=O)NO)c3)CC2)c1", "melting point": 196}, {"smiles": "O=C1NC(=O)C(F)(c2ccccc2)CO1", "note": "(centres undefined)", "melting point": "115 to 117"}, {"smiles": "N#CN=C(N)NCCCCNC(=O)C1(NC(=O)CCCC(=O)O)Cc2ccccc2C1", "melting point": 105}, {"smiles": "COc1ccc(N2CCN(c3ccc(F)cc3)C(=O)C2)c(-c2ccc(N(C)C)cc2)n1", "melting point": "158 to 164"}, {"smiles": "O=C1N(Cc2ccc(Cl)c(Cl)c2)C(=NCC(F)(F)F)SCN1c1ccccc1", "melting point": "99.1 to 99.6"}, {"smiles": "COc1ccc(C(=O)n2c3c(c4ccccc42)CC(C(=O)O)(C(=O)O)CC3)cc1", "melting point": "205 to 207"}, {"smiles": "O=C(O)c1ccccc1C(=O)c1c(-c2ccccc2)[nH]c2ccccc12", "melting point": "106 to 107"}, {"smiles": "O=C(O)COc1cc(F)c(Br)cc1C(=O)NCc1cccc([N+](=O)[O-])c1", "melting point": "169 to 172"}, {"smiles": "Cc1nc2c(N)nc3ccccc3c2n1CC1(O)CCCC1", "melting point": "306 to 308"}, {"smiles": "Oc1cc(CCc2ccccc2)cc(O)c1O", "melting point": 124}, {"smiles": "CC1COCc2nc3c(N)nc4cc(CCS(C)(=O)=O)ccc4c3n21", "note": "(centres undefined)", "melting point": "205 to 206"}, {"smiles": "CCCCCOC(=O)CCNCC(O)COc1ccccc1C#N", "note": "(centres undefined)", "melting point": 91}, {"smiles": "N#Cc1cc(Br)cc2ccc(O)cc12", "melting point": "222 to 224"}, {"smiles": "COCCOC(=O)c1ccc(C)c(-n2c(C)cc(OCc3ccccc3CNC(=O)Nc3cc(C(C)(C)C)nn3-c3cccc(OCCO)c3)c(Cl)c2=O)c1", "melting point": "143 to 145"}, {"smiles": "OCc1c(-c2ccc(O)cc2)nnn1-c1ccc(C(F)(F)F)cc1Cl", "melting point": "181 to 182"}, {"smiles": "O=C(NNc1ccccc1)NC1(N=NC2(NC(=O)NNc3ccccc3)CCCCC2)CCCCC1", "melting point": "148 to 151"}, {"smiles": "CC1(C)C2CC[C@]1(CS(=O)(=O)NCCNCC1COc3ccccc3O1)C(=O)C2", "note": "(some centres undefined)", "melting point": "143 to 146"}, {"smiles": "O=C1CC(O)CN1S(=O)(=O)c1ccc(N2CCCCC2)cc1", "note": "(centres undefined)", "melting point": "158 to 159"}, {"smiles": "CCOC(=O)C1Cc2cc(-c3ccccc3)ccc2O1", "note": "(centres undefined)", "melting point": 112}, {"smiles": "O=C(O)CN1C(=O)C(=Cc2cccc3ccccc23)SC1=S", "melting point": "241 to 244"}, {"smiles": "c1ccc(N2CCN(Cc3c[nH]c4ncccc34)CC2)cc1", "melting point": "207 to 209"}, {"smiles": "CC(=O)NCCCc1c(N)ccc2c1C(=O)c1ccccc1C2=O", "melting point": 202}, {"smiles": "CCN1c2ncc(C=Cc3cccc(F)c3)cc2C(=O)N(C)c2ccc(Cl)nc21", "melting point": "130 to 131"}, {"smiles": "NC(=O)c1cccc(C(N)=O)c1N", "melting point": "284 to 288"}, {"smiles": "O=C(NCCCCCCOC(=O)N1CCC(OC(=O)Oc2ccc([N+](=O)[O-])cc2)CC1)Oc1ccc(Oc2ccccc2)cc1", "melting point": "93 to 94"}, {"smiles": "Oc1ncnc2nc(-c3cccc(Cl)c3)cnc12", "melting point": "> 315"}, {"smiles": "Cc1c(NC(=O)c2cccc(Oc3ccccc3)c2)ccc2cc(CN3CCCC3)cnc12", "melting point": "147 to 148"}, {"smiles": "Cc1[nH]nc(C(F)(F)F)c1-c1cncc(OC2SCC(O)C(O)C2O)c1", "note": "(centres undefined)", "melting point": 234}, {"smiles": "CC(C)(CCBr)CC(=O)O", "melting point": "53 to 55"}, {"smiles": "COCc1nc2c(N)nc3cc(OCc4ccccc4)ccc3c2n1CCc1ccccc1", "melting point": "195 to 197"}, {"smiles": "O=C(CN1C(=O)C(NC(=O)n2ccnc2)N=C(c2ccccc2F)c2ccccc21)N1CC2CCC(CC2)C1", "note": "(racemic)", "melting point": "235 to 237"}, {"smiles": "COc1ccc(C(=O)Nc2nc3ccc(N(C)C)cc3c(NCc3cccs3)c2C#N)cc1", "melting point": 163}, {"smiles": "Oc1ccccc1-n1nnc2cccnc21", "melting point": "165 to 166"}, {"smiles": "COc1cc(OC)nc(Oc2ccc3ccccc3c2C=NNc2ccccc2)n1", "melting point": 148}, {"smiles": "COC(=O)COc1ccc(C(=O)CN2CCN(c3ccncc3)CC2)cc1", "melting point": "150 to 152"}, {"smiles": "C=CCOC(=O)C1=C2[C@@H](OC)CCC[C@@H]2[C@@H]2[C@@H]([C@H](O)C(F)(F)F)C(=O)N12", "melting point": "78 to 85"}, {"smiles": "COc1ccc(C(C#Cc2ccccc2)CC(=O)Nc2nccs2)cc1OC1CCCC1", "note": "(racemic)", "melting point": "142 to 144"}, {"smiles": "CCc1ccc(C(=O)CCCCCN2CCC(CNC(=O)c3cc(Cl)c(N)cc3OC)CC2)cc1", "melting point": "140 to 145"}, {"smiles": "CCOC(=O)c1cn(C2CC2)c2c(F)c(/C=C\\c3cc(Cc4cnc(N)nc4N)cc(OC)c3OC)c(F)cc2c1=O", "melting point": "> 220"}, {"smiles": "O=C(CC[C@H]1CC1(c1ccccc1)c1ccccc1)Oc1ccc([N+](=O)[O-])cc1", "melting point": "76 to 77"}, {"smiles": "CCOC(=O)c1ccc(/C=C/c2ccc3c(c2)C(C)(C)CC3(C)C)cc1", "melting point": "151 to 152"}, {"smiles": "CN(C)C1(c2cccc(F)c2)CCC2(CC1)NCCc1c2[nH]c2ccccc12", "note": "(centres undefined)", "melting point": "220 to 225"}, {"smiles": "CC(=O)SCCCCC(=O)c1cccnc1", "melting point": 43}, {"smiles": "COC(=O)c1cccc(-c2nc(-c3cccc(C(F)(F)F)c3)cs2)c1", "melting point": "105 to 106"}, {"smiles": "CCCCCCCCCOC(=O)Oc1ccc(-c2ccc(C#N)cc2)cc1", "melting point": "53 to 53.1"}, {"smiles": "Oc1ccc(Oc2ncc(Br)cn2)cc1", "melting point": 178}, {"smiles": "O=C(N[C@@H]1C2CCN(CC2)[C@H]1Cc1cccnc1)c1cc2ccccc2o1", "melting point": "134 to 139"}, {"smiles": "CCn1cc(C(=O)O)c(=O)c2cc(F)c(N3CCNC(c4cc(C)sc4C)C3)cc21", "note": "(centres undefined)", "melting point": "248 to 250"}, {"smiles": "O=C1NCCN1Cc1ccc(OCc2ccccc2)cc1", "melting point": "110 to 122"}, {"smiles": "O=C(Nc1ccc2cc(CN3CCCC3)ccc2c1)N1CCC(c2ccc(Cl)cc2)CC1", "melting point": "209 to 211"}, {"smiles": "CCc1[nH]n(C2CCCC2)c2nc(Cc3cccc(OC)c3)nc(=O)c1-2", "melting point": "148 to 150"}, {"smiles": "Cn1ncc(C(=O)O)c1C(=O)Nc1ccn2nc(-c3cccc(F)n3)nc2c1", "melting point": "> 290"}, {"smiles": "ON=C(Cc1ccccc1)c1ccccn1", "melting point": "151 to 153"}]}]}
